In patent US4308249A, “Radiopharmaceutical complexes of N-(tri-substituted alkyl)-iminodiacetic acids” (priority 1979, dated 1981):

How the values were obtained:
[1] = Urinary excretion of radioactivity in male mongrel dog; format: in vivo; conditions: through 2 hours after administration
[2] = Disposition of radioactivity in female beagle dog after i.v. chelate, Anger camera scintigraphy (Tables 2 and 3, FIG. 1); format: in vivo; parameters: key to Relative Distribution of Chelate: Vascular / Relative Distribution of Chelate: Liver / Relative Distribution of Chelate: Gallbladder: -: no statistically significant measured radioactivity; ±: relative amounts of measured radioactivity; +: relative amounts of measured radioactivity; ++: relative amounts of measured radioactivity; +++: the maximum measured radioactivity; conditions: for Relative Distribution of Chelate: Gallbladder / Relative Distribution of Chelate: Liver / Relative Distribution of Chelate: Vascular: i.v.
Method: (§1) This procedure used with the rabbit was repeated with additional anesthetized animals; a female beagle dog weighing 9.25 kilograms, and a female rhesus monkey weighing 7.9 kilograms. Again 0.1 to 1.0 milliliter of the solution containing 0.5 to 5 milligrams of the same chelate and prepared as in Examples 1 and 2 was administered in each case. One difference was that unlike the case of the rabbit, the chelate solution was injected intravenously in the saphenous vein of the dog or monkey. In separate tests with the female beagle, (1) a solution having 1.13 mCi of the chelate and (2) a solution having a 3.10 mCi of the chelate were administered, and the disposition of radioactivity in the dog was monitored for one hour and 3 hours, respectively. In addition, FIG. 1 represents results of the test involving administration of 3.10 mCi of radioactive chelate to the female beagle dog.
(§2) At various times after administration of a solution of a chelate of this invention which are indicated in Tables 1-4, scintiscan photographs and video tape recordings were taken of the rabbit, female beagle and monkey using the Anger camera. This instrument was a Pho-Gamma LFOV Scintillation Camera System, Model 6413, fitted with a Model 3137 Vari-Back Camera, a Model 3122 Data-Store/Playback System and a Model 27851 Analog-Digital/Digital-Analog Converter (all Searle Radiographics, Inc.). This entire system was interfaced with a Xerox 530 computer (Xerox Corp., Minneapolis, Minn.) which was programmed to record net counts per unit of time and percents of total counts in individual organs and to plot organ radioactivity versus time and to separate the radioactivity of the gallbladder from the radioactivity of the liver. The camera was operated with a 140 keV high resolution Type II converging collimator using a 20 percent technetium-99 m window. Generally 400,000 counts were accumulated on each scintiscan using both video tape and self-developing film, with the animal in the full ventral position. The photographs represented a visualization of the anatomic relationships in the hepatobiliary system.
(§3) The video tape was processed by computer for quantification of the distribution of the technetium-99 m chelate radioactivity in the organs of the animals. Tables 1-4 contain semi-quantitative representations of the distribution of radioactivity in the organs of the test animals calculated from the scintiscans. In Tables 1-4, (-), (±), (+), (++) and (+++) indicate relative amounts of measured radioactivity ranging from (-) for no statistically significant measured radioactivity to (+++) for the maximum measured radioactivity.
The disappearance of the radioactive chelate from the liver and its appearance in the gallbladder of the female beagle as well as the presence of the radioactive chelate in the total hepatobiliary system of the female beagle was calculated from video tape measurements by the computer and are plotted as percentages of total radioactivity administered in the form of the radioactive chelate versus time after administration in FIG. 1. At about 120 minutes after administration, about 75 percent of the total radioactivity administered was concentrated in the gallbladder, and in excess of 90 percent of the total dose of the radioactive chelate was in the hepatobiliary system. Approximately 50 percent of the radioactive chelate in the total hepatobiliary system had passed from the liver into the gallbladder within about 45 minutes after administration.

[3] = Whole blood clearance of radioactivity in male mongrel dog, gamma spectrometer (FIG. 3); format: in vivo
Method: The procedures for injecting and taking and analyzing blood samples from the female beagle were repeated with a male mongrel dog weighing 14.1 kilograms, and the results are presented in FIG. 3. In this case, a sample of 0.1 to 1.0 milliliter of a solution of the chelate of technetium-99 m and N-(3-cyano-3,3-diphenylpropyl)-iminodiacacetic acid prepared as in Examples 1 and 2 and having a radioactivity of 3.08 mCi and containing 0.5 to 5 milligrams of the chelate was administered. In this case, the radioactivity of one milliliter samples of whole blood was measured.
(§4) The gamma spectrometer employed was a Model 1185 Gamma Scintillation Spectrometer (Searle Analytic Inc., Des Plaines, Ill.). One milliliter samples of plasma or whole blood were analyzed for technetium-99 m, and samples were counted for 1 minute. FIGS. 2 and 3 show the radioactivity present in the plasma or whole blood, respectively, versus the time in hours after administration of the chelate to the animals. As determined by the computer, curves A and B were the best fitting curves passing through the plots of experimentally measured radioactivities. […] This illustrates that, after being distributed throughout the body the chelate of this invention is cleared relatively quickly from the […].

[4] = Disposition of radioactivity in female rhesus monkey after i.v. chelate, Anger camera scintigraphy (Table 4); format: in vivo; parameters: key to Relative Distribution of Chelate: Vascular / Relative Distribution of Chelate: Liver / Relative Distribution of Chelate: Gallbladder / Relative Distribution of Chelate: Intestine: -: no statistically significant measured radioactivity; ±: relative amounts of measured radioactivity; +: relative amounts of measured radioactivity; ++: relative amounts of measured radioactivity; +++: the maximum measured radioactivity
Method: as §1
(§5) In the test using the female rhesus monkey, 0.1 to 1.0 milliliter of a solution of the chelate of technetium-99 m and N-(3-cyano-3,3-diphenylpropyl)-iminodiacetic acid prepared as in Examples 1 and 2 and having a radioactivity of 1.23 mCi and containing 0.5 to 5 milligrams of the same chelate was administered and the disposition of the radioactive material in the monkey was monitored for one hour.
as §2, §3

[5] = Organ radioactivity and imaging in test animals (all species) after i.v. chelate; format: in vivo, rabbit, dog, monkey
Method: (§6) A volume of a solution of the chelate of technetium-99 m and N-(3-cyano-3,3-diphenylpropyl)-iminodiacetic acid prepared as in Examples 1 and 2 in the range of 0.1 to 1.0 milliliter and having a radioactivity of 1.2 millicuries and containing 0.5 to 5 milligrams of the chelate was administered intravenously to an anesthetized New Zealand rabbit weighing about 3 kilograms using a 1 milliliter tuberculin syringe connected to a #23 gauge indwelling cannula inserted into a marginal ear vein. The rabbit was positioned in a full ventral position for four hours during which time the disposition of the radioactivity in the rabbit in this position was monitored using a computer-augmented Anger camera.
as §1, §5, §2

[6] = Disposition of radioactivity in rabbit after i.v. chelate, Anger camera scintigraphy (Table 1); format: in vivo, New Zealand rabbit; parameters: key to Relative Distribution of Chelate: Vascular / Relative Distribution of Chelate: Liver / Relative Distribution of Chelate: Gallbladder / Relative Distribution of Chelate: Intestine: -: no statistically significant measured radioactivity; ±: relative amounts of measured radioactivity; +: relative amounts of measured radioactivity; ++: relative amounts of measured radioactivity; +++: the maximum measured radioactivity
Method: as §6, §2, §3

[7] = Plasma clearance of radioactivity in female beagle, gamma spectrometer (FIG. 2); format: in vivo, female beagle dog
Method: In addition, periodically during the time of monitoring the distribution of radioactivity in the female beagle, blood samples were removed from the jugular vein of the animal and collected in vacuum tubes containing the disodium salt of ethylendiaminetetraacetic acid and the radioactivity of one milliliter samples of plasma was measured in a gamma spectrometer.
as §4

[8] = female beagle, about 120 minutes after administration
[9] = female beagle, 1.13 mCi (Table 2), minutes after administration: 1, 10, 20, 30, 40, 50, 60
[10] = female beagle, 3.10 mCi (Table 3), minutes after administration: b87 10, b88 25, b89 35, b90 65, b91 102, b92 160
[11] = i.v., 1.23 mCi, minutes after administration: 1, 10, 20, 30, 40, 50, 60
[12] = test animals, first 3 hours after administration
[13] = i.v., 1.2 mCi, minutes after administration: 0.5, 3, 10, 20, 30, 60, 120, 180, 240
[14] = within 120 minutes after administration

Substance: chelate of technetium-99 m and N-(3-cyano-3,3-diphenylpropyl)-iminodiacetic acid
- total radioactivity administered found in the urine [1]: less than 0.5%
- administered chelate appeared in the liver ([2]; dog, within 15 minutes after administration): more than 70%
- appearance of the chelate in the gallbladder compared with rabbit ([2]; female beagle): slower than in the case of the rabbit
- excretion of the chelate from the gallbladder into the intestine compared with rabbit or monkey ([2]; female beagle): slower in the female beagle than either in the rabbit or monkey
- route of clearance from the vascular system ([2]; female beagle): exclusively by the liver and biliary excretion
- total dose of the radioactive chelate in the hepatobiliary system [2, 8]: > 90%
- total radioactivity administered concentrated in the gallbladder [2, 8]: about 75%
- Relative Distribution of Chelate: Gallbladder [2, 9]: - and + and ++ and +++
- Relative Distribution of Chelate: Liver [2, 9]: ++ and +++ and +
- Relative Distribution of Chelate: Vascular [2, 9]: ++ and -
- Relative Distribution of Chelate: Gallbladder [2, 10]: - and + and ++ and +++
- Relative Distribution of Chelate: Liver [2, 10]: +++ and ++ and + and ± and -
- Relative Distribution of Chelate: Vascular [2, 10]: + and -
- radioactive chelate in the total hepatobiliary system passed from the liver into the gallbladder ([2]; female beagle, within about 45 minutes after administration): Approximately 50%
- administered radioactivity accumulated in the hepatobiliary system ([2]; female dog, during the first 30 minutes): more than 85%
- clearance kinetics [3]: bi-exponential decay
- half time of distributive phase of clearance ([3]; 3.08 mCi): 0.13 h
- half time of elimination phase of clearance ([3]; 3.08 mCi): 3.5 h
- appearance of the chelate in the gallbladder compared with rabbit [4]: slower than in the case of the rabbit
- route of clearance from the vascular system [4]: exclusively by the liver and biliary excretion
- Relative Distribution of Chelate: Gallbladder [4, 11]: - and +
- Relative Distribution of Chelate: Intestine [4, 11]: - and + and ++ and +++
- Relative Distribution of Chelate: Liver [4, 11]: +++ and ++ and +
- Relative Distribution of Chelate: Vascular [4, 11]: + and -
- distribution throughout the cardiovascular system ([5]; after intravenous administration): rapidly distributed throughout the cardiovascular system
- imaging of liver and gallbladder ([5]; all species, first 3 hours after administration): in all species the conformation of these organs was easily seen and distinguished
- urinary excretion ([5]; in vivo): virtually no urinary excretion
- ratio of measured radioactivity in the gallbladder to measured background radioactivity [5, 12]: 150-200 to 1
- ratio of measured radioactivity of the liver to measured background radiation [5, 12]: 10-20 to 1
- route of clearance from the vascular system [6]: solely by the liver and biliary excretion
- time to appearance of chelate in the gallbladder [6]: ≤ 3 min
- Relative Distribution of Chelate: Gallbladder [6, 13]: - and + and ++
- Relative Distribution of Chelate: Intestine [6, 13]: - and + and ++ and +++
- Relative Distribution of Chelate: Liver [6, 13]: +++ and ++ and + and ± and -
- Relative Distribution of Chelate: Vascular [6, 13]: ++ and -
- radioactivity of heart, aorta, kidneys and liver ([6]; within 0.5 minutes after administration): strongly radioactive
- amount in the gallbladder [6, 14]: a relatively small amount
- amount of chelate in the intestine [6, 14]: the bulk of the chelate
- radioactivity in the hepatic parenchyma [6, 14]: no measurable radioactivity
- clearance kinetics [7]: bi-exponential decay
- half time of distributive phase of clearance [7]: 0.1 h
- half time of elimination phase of clearance [7]: 1.5 h
